Assays:
Beet Armyworm (BAW) = experiment: Bioassays on BAW, 128-well diet tray assay; assay type: in vivo; details: Spodoptera exigua; for mortality at 50 µg/cm2: 168 h, 50 μg/cm^2 on artificial diet, second instar larvae, five to seven days, 25° C., read-out: BAW % Control (or Mortality) rating
Procedure: Bioassays on BAW were conducted using a 128-well diet tray assay. one to five second instar BAW larvae were placed in each well (3 mL) of the diet tray that had been previously filled with 1 mL of artificial diet to which 50 μg/cm^2 of the test compound (dissolved in 50 μL of 90:10 acetone-water mixture) had been applied (to each of eight wells) and then allowed to dry. Trays were covered with a clear self-adhesive cover, and held at 25° C., 14:10 light-dark for five to seven days. Percent mortality was recorded for the larvae in each well; activity in the eight wells was then averaged. The results are indicated in the tables entitled “Table ABC: Assay Results (F)”, “Table ABCD: Assay Results (C)”, and “Table ABCDE: Assay Results (P)” (See Table Section).
(§1) Bioassays on BAW and CL were conducted according to the procedures outlined in Example A: Bioassays on Beet Armyworm (“BAW”) and Cabbage Looper (“CL”) using the following concentrations: 5, 0.5, and 0.05 μg/cm^2.

Cabbage Looper (CL) = experiment: Bioassays on CL, 128-well diet tray assay; assay type: in vivo; details: Trichoplusia ni; for mortality at 50 µg/cm2: 168 h, 50 μg/cm^2 on artificial diet, second instar larvae, five to seven days, 25° C., read-out: CL % Control (or Mortality) rating
Procedure: Bioassays on CL were conducted using a 128-well diet tray assay. One to five second instar CL larvae were placed in each well (3 mL) of the diet tray that had been previously filled with 1 mL of artificial diet to which 50 μg/cm^2 of the test compound (dissolved in 50 μL of 90:10 acetone-water mixture) had been applied (to each of eight wells) and then allowed to dry. Trays were covered with a clear self-adhesive cover, and held at 25° C., 14:10 light-dark for five to seven days. Percent mortality was recorded for the larvae in each well; activity in the eight wells was then averaged. The results are indicated in the table entitled “Table ABC: Assay Results (F)”, “Table ABCD: Assay Results (C)”, and “Table ABCDE: Assay Results (P)” (See Table Section).
as §1

Compound	mortality at 50 µg/cm2 (Beet Armyworm (BAW))	mortality at 50 µg/cm2 (Cabbage Looper (CL))	also measured
Cc1cc(/C=C/C(c2cc(Br)cc(Br)c2)C(F)(F)F)ccc1C(=O)N[C@H](C)NC(=O)CCC(F)(F)F (stereo partly drawn) [Compound P15, 4-((E)-3-(3,5-Dibromophenyl)-4,4,4-trifluorobut-1-en-1-yl)-2-methyl-N—((R)-1-(4,4,4-trifluorobutanamido)ethyl)benzamide]	50 to 100%	50 to 100%	
C[C@H](NC(=O)CCC(F)(F)F)NC(=O)c1ccc(/C=C/C(c2cc(Cl)c(F)c(Cl)c2)C(F)(F)F)cc1C(F)(F)F (stereo partly drawn) [Compound P9, 4-((E)-3-(3,5-Dichloro-4-fluorophenyl)-4,4,4-trifluorobut-1-en-1-yl)-N—((R)-1-(4,4,4-trifluorobutanamido)ethyl)-2-(trifluoromethyl)benzamide]	50 to 100%	50 to 100%	
Cc1cc(/C=C/C(c2cc(Cl)c(Br)c(Cl)c2)C(F)(F)F)ccc1C(=O)N[C@H](C)NC(=O)CC(F)(F)F (stereo partly drawn) [Compound P8, 4-((E)-3-(4-Bromo-3,5-dichlorophenyl)-4,4,4-trifluorobut-1-en-1-yl)-2-methyl-N—((R)-1-(3,3,3-trifluoropropanamido)ethyl)benzamide]	50 to 100%	50 to 100%	
C[C@H](NC(=O)CS(C)(=O)=O)NC(=O)c1ccc(/C=C/C(c2cc(Cl)c(Cl)c(Cl)c2)C(F)(F)F)cc1C(F)(F)F (stereo partly drawn) [Compound P43, N—((S)-1-(2-(Methylsulfonyl)acetamido)ethyl)-4-((E)-4,4,4-trifluoro-3-(3,4,5-trichlorophenyl)but-1-en-1-yl)-2-(trifluoromethyl)benzamide]	50 to 100%	50 to 100%	
C[C@H](NC(=O)CCS(C)(=O)=O)NC(=O)c1ccc(/C=C/C(c2cc(Cl)c(Cl)c(Cl)c2)C(F)(F)F)cc1C(F)(F)F (stereo partly drawn) [Compound P47, N—((R)-1-(3-(methylsulfonyl)propanamido)ethyl)-4-((E)-4,4,4-trifluoro-3-(3,4,5-trichlorophenyl)but-1-en-1-yl)-2-(trifluoromethyl)benzamide]	50 to 100%	50 to 100%	
C[C@H](NC(=O)CCC(F)(F)F)NC(=O)c1ccc(/C=C/C(c2cc(Cl)c(Cl)c(Cl)c2)C(F)(F)F)cc1 (stereo partly drawn) [FC1, 4-((E)-4,4,4-Trifluoro-3-(3,4,5-trichlorophenyl)but-1-en-1-yl)-N—((R)-1-(4,4,4-trifluorobutanamido)ethyl)benzamide]			mortality at 0.05 µg/cm2 (Beet Armyworm (BAW); 0.05 μg/cm^2, read-out: BAW Percent control (or mortality)): 0%; mortality at 0.5 µg/cm2 (Beet Armyworm (BAW); 0.5 μg/cm^2, read-out: BAW Percent control (or mortality)): 0%; mortality at 5 µg/cm2 (Beet Armyworm (BAW); 5 μg/cm^2, read-out: BAW Percent control (or mortality)): 13%; mortality at 0.05 µg/cm2 (Cabbage Looper (CL); 0.05 μg/cm^2, read-out: CL Percent control (or mortality)): 0%; mortality at 0.5 µg/cm2 (Cabbage Looper (CL); 0.5 μg/cm^2, read-out: CL Percent control (or mortality)): 0%; mortality at 5 µg/cm2 (Cabbage Looper (CL); 5 μg/cm^2, read-out: CL Percent control (or mortality)): 71%
O=C(CCC(F)(F)F)NCNC(=O)c1ccc(/C=C/C(c2cc(Cl)c(Cl)c(Cl)c2)C(F)(F)F)cc1C(F)(F)F (stereo not shown) [Compound F13, (E)-4-(4,4,4-Trifluoro-3-(3,4,5-trichlorophenyl)but-1-en-1-yl)-N-((4,4,4-trifluorobutanamido)methyl)-2-(trifluoromethyl)benzamide]	50 to 100%	50 to 100%	
CSCCC(=O)N[C@@H](C)NC(=O)c1ccc(/C=C/C(c2cc(Cl)c(Cl)c(Cl)c2)C(F)(F)F)cc1C(F)(F)F (stereo partly drawn) [Compound P53, N—((R)-1-(3-(Methylthio)propanamido)ethyl)-4-((E)-4,4,4-trifluoro-3-(3,4,5-trichlorophenyl)but-1-en-1-yl)-2-(trifluoromethyl)benzamide]	50 to 100%	50 to 100%	
CSCC(=O)N[C@@H](C)NC(=O)c1ccc(/C=C/C(c2cc(Cl)c(Cl)c(Cl)c2)C(F)(F)F)cc1C(F)(F)F (stereo partly drawn) [Compound P54, N—((S)-1-(2-(Methylthio)acetamido)ethyl)-4-((E)-4,4,4-trifluoro-3-(3,4,5-trichlorophenyl)but-1-en-1-yl)-2-(trifluoromethyl)benzamide]	50 to 100%	50 to 100%	

Source: patent US9676704B2, “Pesticidal compositions and processes related thereto” (Dow AgroSciences LLC, priority 2014, dated 2017)
